From US11396517B1, “Exo-aza spiro inhibitors of menin-MLL interaction” (Janssen Pharmaceutica NV, priority 2017, dated 2022)
Read-outs that look alike come from different tables or passages of the source.

Molecular target: T1, menin (Homo sapiens, UniProt O00255, T541A)
T1 construct: Menin (a.a. 1-610-6×his tag)
T1 sequence (O00255 with tags, fused parts or gaps T541A): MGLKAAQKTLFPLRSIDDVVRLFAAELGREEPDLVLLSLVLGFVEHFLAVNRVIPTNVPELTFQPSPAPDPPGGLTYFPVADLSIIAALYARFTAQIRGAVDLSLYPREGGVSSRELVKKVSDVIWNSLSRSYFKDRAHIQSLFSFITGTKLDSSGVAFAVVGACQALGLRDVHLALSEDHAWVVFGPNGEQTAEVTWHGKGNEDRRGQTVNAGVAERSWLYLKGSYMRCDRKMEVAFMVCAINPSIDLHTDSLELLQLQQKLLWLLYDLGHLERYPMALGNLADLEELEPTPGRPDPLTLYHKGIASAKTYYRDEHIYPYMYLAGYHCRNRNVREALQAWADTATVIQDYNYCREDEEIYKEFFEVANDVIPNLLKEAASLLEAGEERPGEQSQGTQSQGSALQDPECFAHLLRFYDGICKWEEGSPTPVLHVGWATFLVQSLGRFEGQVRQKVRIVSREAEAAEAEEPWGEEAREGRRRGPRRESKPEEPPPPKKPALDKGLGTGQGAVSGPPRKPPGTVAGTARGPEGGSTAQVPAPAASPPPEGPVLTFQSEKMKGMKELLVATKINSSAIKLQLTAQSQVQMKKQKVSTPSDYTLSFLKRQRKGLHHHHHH
Experiment: Menin/MLL homogenous time-resolved fluorescence (HTRF) assay
Assay type: binding
Protocol: 2) Menin/MLL Homogenous Time-Resolved Fluorescence (HTRF) Assay
To an untreated, white 384-well microtiter plate was added 40 nL 200× test compound in DMSO and 4 μL 2× terbium chelate-labeled menin (vide infra for preparation) in assay buffer (40 mM Tris HCl, pH 7.5, 50 mM NaCl, 1 mM DTT and 0.05% Pluronic F-127). After incubation of test compound and terbium chelate-labeled menin for 5 min at ambient temperature, 4 μL 2× FITC-MBM1 peptide (FITC-β-alanine-[…]-NH2 (SEQ ID NO: 23)) in assay buffer was added, the microtiter plate centrifuged at 1000 rpm for 1 min and the assay mixtures incubated for 15 min at ambient temperature. The relative amount of menin.FITC-MBM1 complex present in an assay mixture is determined by measuring the homogenous time-resolved fluorescence (HTRF) of the terbium/FITC donor/acceptor fluorphore pair using a BMG Pherastar plate reader (ex. 337 nm/terbium em. 490 nm/FITC em. 520 nm) at ambient temperature. The degree of fluorescence resonance energy transfer (the HTRF value) is expressed as the ratio of the fluorescence emission intensities of the FITC and terbium fluorophores (Fern 520 nm/Fem 490 nm). The final concentrations of reagents in the binding assay are […] terbium chelate-labeled menin (location 2), 75 nM FITC-MBM1 peptide and 0.5% DMSO in assay buffer. Dose-response titrations of test compounds are conducted using an 11 point, three-fold serial dilution scheme, starting typically at 25 μM (location 1) or starting typically at 10 μM (location 2).
Compound potencies were determined by first calculating % inhibition at each compound concentration according to equation 1: % inhibition=((HC−LC)−(HTRF^compound−LC))/(HC−LC))*100 (Eqn 1)
Where LC and HC are the HTRF values of the assay in the presence or absence of a saturating concentration of a compound that competes with FITC-MBM1 for binding to menin, and HTRF^compound is the measured HTRF value in the presence of the test compound. FTC and LC HTRF values represent an average of at least 16 replicates per plate.
Where Bottom and Top are the lower and upper asymptotes of the dose-response curve, respectively, IC50 is the concentration of compound that yields 50% inhibition of signal and h is the Hill coefficient.
Preparation of Terbium cryptate labeling of Menin: Menin (a.a. 1-610-6×his tag (“6×his” disclosed as SEQ ID NO: 3)) was labeled with terbium cryptate as follows. 2 mg of Menin was buffer exchanged into 1× phosphate buffered saline. 16 uM Menin was incubated with 4-fold molar excess NHS-terbium cryptate (Cisbio Bioassays, Bedford, Mass.) for 2 hours at room temperature. The labeled protein was purified away from free label by running the reaction over a Superdex 200 Increase 10/300 GL column at 0.75 ml/min. Peak fractions were collected, aliquoted and frozen at −80° C.

[1] = location 1, read-out: (2) location 1 Menin HTRF assay (IC50 (nM))
[2] = location 2, read-out: (2) location 2 Menin HTRF assay (IC50 (nM))

SMILES	IC50 [1] [nM]	IC50 [2] [nM]
N#CCc1ccc(C(=O)NC2CC3(CCN(c4ncnc5sc(CC(F)(F)F)cc45)C3)C2)cc1 (mixture of isomers) [Compound 10]	843	948
CC(C)CN(C(=O)CCN1CCOCC1)C1CC2(CCN(c3ncnc4sc(CC(F)(F)F)cc34)C2)C1 (mixture of isomers) [Compound 52]	555	–
Fc1ccccc1NC1CC2(CCN(c3ncnc4sc(CC(F)(F)F)cc34)C2)C1 (mixture of isomers) [Compound 156]	–	155
Fc1cccc(NC2CC3(CCN(c4ncnc5sc(CC(F)(F)F)cc45)C3)C2)c1 (mixture of isomers) [Compound 157]	–	118
FC(F)(F)Cc1cc2c(N3CCC4(CC(Nc5ccccc5Cl)C4)C3)ncnc2s1 (mixture of isomers) [Compound 159]	–	199
FC(F)(F)Cc1cc2c(N3CCC4(CC(Nc5cccc(Cl)c5)C4)C3)ncnc2s1 (mixture of isomers) [Compound 160]	–	150
FC(F)(F)Cc1cc2c(N3CCC4(CC(Nc5ccc(Cl)cc5)C4)C3)ncnc2s1 (mixture of isomers) [Compound 161]	–	101
Cc1ccccc1NC1CC2(CCN(c3ncnc4sc(CC(F)(F)F)cc34)C2)C1 (mixture of isomers) [Compound 165]	–	656
Cc1cccc(NC2CC3(CCN(c4ncnc5sc(CC(F)(F)F)cc45)C3)C2)c1 (mixture of isomers) [Compound 166]	–	400
Cc1ccc(NC2CC3(CCN(c4ncnc5sc(CC(F)(F)F)cc45)C3)C2)cc1 (mixture of isomers) [Compound 167]	–	98.1
N#CCc1cccc(NC2CC3(CCN(c4ncnc5sc(CC(F)(F)F)cc45)C3)C2)c1 (mixture of isomers) [Compound 173]	–	127
CN(CC1CC2(CCN(c3ncnc4sc(CC(F)(F)F)cc34)C2)C1)c1cnn(C)c1 (mixture of isomers) [Compound 197]	–	2350
Cn1ncc2ccc(NC3CC4(CCN(c5ncnc6sc(CC(F)(F)F)cc56)C4)C3)cc21 (mixture of isomers) [Compound 206]	–	224
Cn1cnc2ccc(NC3CC4(CCN(c5ncnc6sc(CC(F)(F)F)cc56)C4)C3)cc21 (mixture of isomers) [Compound 207]	–	210
Cc1noc2cc(NC3CC4(CCN(c5ncnc6sc(CC(F)(F)F)cc56)C4)C3)ccc12 (mixture of isomers) [Compound 215]	–	62
CNc1nc(N2CCC3(CC(Nc4ccc5oc(=O)n(CCN6CCN(S(C)(=O)=O)CC6)c5c4)C3)C2)c2cc(CC(F)(F)F)sc2n1 (mixture of isomers) [Compound 248]	–	348
CS(=O)(=O)N1CCN(CCn2c(=O)oc3cc(NC4CC5(CCN(c6ncnc7sc(CC(F)(F)F)cc67)C5)C4)ccc32)CC1 (mixture of isomers) [Compound 249]	–	272
CN(C(=O)c1ccccc1)C1CC2(CCN(c3ncnc4sc(CC(F)(F)F)cc34)C2)C1 (mixture of isomers) [Compound 260]	–	> 10000
CS(=O)(=O)N1CCN(CCn2c(=O)oc3ccc(NC4CC5(CCN(c6ncnc7sc(CC(F)(F)F)cc67)C5)C4)cc32)CC1 (mixture of isomers) [Compound 270]	–	518
O=c1ccc(NC2CC3(CCN(c4ncnc5sc(CC(F)(F)F)cc45)C3)C2)c[nH]1 (mixture of isomers) [Compound 305]	–	148
FC(F)(F)Cc1cc2c(N3CCC4(CC(Nc5cn[nH]c5)C4)C3)ncnc2s1 (mixture of isomers) [Compound 309]	–	339

SMILES	IC50 [1] [nM]	IC50 [2] [nM]
Cn1cc(NC2CC3(CCN(c4ncnc5sc(CC(F)(F)F)cc45)C3)C2)cn1 (mixture of isomers) [Compound 310]	–	> 10000
Cn1c(=O)[nH]c2ccc(NC3CC4(CCN(c5ncnc6sc(CC(F)(F)F)cc56)C4)C3)cc21 (mixture of isomers) [Compound 325]	–	1690
CN1CCN(C(=O)c2ccc(NC3CC4(CCN(c5ncnc6sc(CC(F)(F)F)cc56)C4)C3)cc2)CC1 (mixture of isomers) [Compound 336]	–	297
N#Cc1cccc(S(=O)(=O)NC2CC3(CCN(c4ncnc5sc(CC(F)(F)F)cc45)C3)C2)c1 (mixture of isomers) [Compound 415]	–	473
O=S(=O)(NC1CC2(CCN(c3ncnc4sc(CC(F)(F)F)cc34)C2)C1)c1cccc(C(F)(F)F)c1 (mixture of isomers) [Compound 416]	–	433
O=S(=O)(NC1CC2(CCN(c3ncnc4sc(CC(F)(F)F)cc34)C2)C1)c1ccc(C(F)(F)F)cc1 (mixture of isomers) [Compound 417]	–	221
O=c1cc(NC2CC3(CCN(c4ncnc5sc(CC(F)(F)F)cc45)C3)C2)cc[nH]1 (mixture of isomers) [Compound 424]	–	576
CN(C1CC2(CCN(c3ncnc4sc(CC(F)(F)F)cc34)C2)C1)S(=O)(=O)c1cccc(C#N)c1 (mixture of isomers) [Compound 425]	–	234
CN(C1CC2(CCN(c3ncnc4sc(CC(F)(F)F)cc34)C2)C1)S(=O)(=O)c1cccc(C(F)(F)F)c1 (mixture of isomers) [Compound 426]	–	536
CN(C1CC2(CCN(c3ncnc4sc(CC(F)(F)F)cc34)C2)C1)S(=O)(=O)c1ccc(C(F)(F)F)cc1 (mixture of isomers) [Compound 427]	–	> 10000
FC(F)(F)Cc1cc2c(N3CC4(CCC(Nc5cn[nH]c5)C4)C3)ncnc2s1 (racemic) [Compound 277]	–	949
Cc1nc(N2CC3(CCC(Nc4ccc(CC#N)cc4)C3)C2)c2cc(CC(F)(F)F)sc2n1 (racemic) [Compound 403]	–	553
FC(F)(F)Cc1cc2c(N3CCC4(CCC(NCc5ccccc5)C4)C3)ncnc2s1 (single isomer, unassigned) [Compound 4]	188	39.9
FC(F)(F)Cc1cc2c(N3CCC4(CCC(NCc5ccccc5)C4)C3)ncnc2s1 (single isomer, unassigned) [Compound 6]	472	143
N#CCc1ccc(C(=O)NC2CC3(CCN(c4ncnc5sc(CC(F)(F)F)cc45)C3)C2)cc1 (single isomer, unassigned) [Compound 11]	–	3760
N#CCc1ccc(C(=O)NC2CC3(CCN(c4ncnc5sc(CC(F)(F)F)cc45)C3)C2)cc1 (single isomer, unassigned) [Compound 12]	–	730
CN(C1CC2(CCN(c3ncnc4sc(CC(F)(F)F)cc34)C2)C1)S(=O)(=O)c1ccccc1 (single isomer, unassigned) [Compound 25]	–	510
CN(C1CC2(CCN(c3ncnc4sc(CC(F)(F)F)cc34)C2)C1)S(=O)(=O)c1ccccc1 (single isomer, unassigned) [Compound 26]	–	311
CS(=O)(=O)Nc1ccc(C(=O)NC2CC3(CCN(c4ncnc5sc(CC(F)(F)F)cc45)C3)C2)cc1 (single isomer, unassigned) [Compound 28]	–	> 10000
CS(=O)(=O)Nc1ccc(C(=O)NC2CC3(CCN(c4ncnc5sc(CC(F)(F)F)cc45)C3)C2)cc1 (single isomer, unassigned) [Compound 29]	–	316
FC(F)(F)Cc1cc2c(N3CCC4(CCC(Nc5ccccc5)C4)C3)ncnc2s1 (single isomer, unassigned) [Compound 31]	–	241
